The values below come from US20140186306A1, “NOVEL AMPK AGONIST COMPOSITIONS AND METHODS OF USE” (priority 2012, published 2014).

The conditions of series [1]: human, in vivo, cited from earlier work.
In another series the test system is mice. To be noted: oral dose of 500 mg/Kg/day over a 4 week period; cited from earlier work.
The subject of series [2] is horses with joint and/or soft tissue lameness. The series is described as follows: Clinical response of racing and non-racing horses with joint and/or soft tissue lameness to AICAR injected intra-articularly or locally infiltrated. The format is in vivo, horse. To be noted: all treated horses; localized injection of 1.3 mg/ml AICAR.
Protocol: In the examples below the novel or test composition indicated as NOVEL was comprised of 1.3 mg/ml solutions of AICAR. The purpose of this study was to evaluate the clinical response of racing and non-racing horses with joint and/or soft tissue lameness to various doses of AICAR, either injected intra-articularly or locally infiltrated into the affected soft tissue structure. […] In most cases, multiple joints or soft tissue structures per animal were treated. In some cases, joints and soft tissue structures were injected simultaneously.
Addition of 0.5 ml of an aminoglycoside antibiotic per 2.5 ml vial of AICAR was left up to the discretion of the attending veterinarian. Prior to the treatment, each case was graded for lameness, swelling and heat, and pain. Each injected joint received either one, 1.3 mg/ml, 2.5 ml dose (3.25 mg) for a small joint, or two, 2.5 ml dose vials for large (stifle) joints. Soft tissue structures, including tendons and tendon sheaths, suspensory ligaments, exostoses (splints), periosteal osteitis, and perineural injections were done with multiple vials of the AICAR. The dose was dependent upon the perceived surface area to be treated. The horses were re-examined at various times post-injection as most horses were stabled at locations remote to the veterinarians. All cases were followed up by telephone calls to trainers/caretakers within 24 hours. […]

For `NC(=O)c1ncn([C@@H]2O[C@H](CO)[C@@H](O)[C@H]2O)c1N` [AICAR, 5-amino-1-β-D-ribofuranosyl-imidazole-4-carboxamide], the oral bioavailability entry in series [1] (po) is “less than 5%”. Also, in series [1], the plasma clearance is 36.7 mL/min/kg. The performance-enhancing activity entry with mice is “performance-enhancing activity”. Further, in series [2], the adverse events result is on record as “No adverse events were reported with the exception of transient swelling of a fetlock that was traumatically injected”.
